In paper PMC6270420, “Antibacterial Activity of Salicylanilide 4-(Trifluoromethyl)benzoates” (Molecules, 2013):
Values after ≈ are worked out from the molar mass of the structure shown. Where two headings read alike, the source gives them in different places.

Legend:
Mtb. 7357/1988 = experiment: microbe, parasite or virus in culture; assay type: cell-based; conditions: Mycobacterium tuberculosis, read-out: MIC Mtb. 7357/1988
[1] = test system: Mycobacterium tuberculosis 331/88 (H37Rv); experiment: Antimycobacterial MIC micromethod, Šula's medium; assay type: cell-based
[2] = test system: M. kansasii 6509/96 (clinically isolated strain); experiment: Antimycobacterial MIC micromethod; assay type: cell-based; conditions: Mycobacterium kansasii, read-out: MIC M. kansasii 6509/96
[3] = test system: Mycobacterium kansasii 235/80; experiment: Antimycobacterial MIC micromethod; assay type: cell-based; conditions: read-out: MIC M. kansasii 235/80
Mtb. Praha 131 (XDR-TB) = experiment: microbe, parasite or virus in culture; assay type: cell-based; conditions: Mycobacterium tuberculosis, read-out: MIC Mtb. Praha 131 (XDR-TB)
[4] = test system: Mycobacterium avium 330/88; experiment: Antimycobacterial MIC micromethod; assay type: cell-based
Mtb. 53/2009 = experiment: microbe, parasite or virus in culture; assay type: cell-based; conditions: Mycobacterium tuberculosis, read-out: MIC Mtb. 53/2009
Mtb. 9449/2006 = experiment: microbe, parasite or virus in culture; assay type: cell-based; conditions: Mycobacterium tuberculosis, read-out: MIC Mtb. 9449/2006
[5] = molecular target: T1, mycobacterial isocitrate lyase (ICL1, Rv0467) (Mycobacterium tuberculosis, UniProt P9WKK7); experiment: Isocitrate lyase inhibition assay (ICL1); assay type: biochemical, Mycobacterium tuberculosis H37Rv; conditions: 10 μmol/L; read-out: % ICL inhibition at 10 μmol/L (± standard deviation)
T1 construct: His tag (from pET-28b(+)); made in house; host or cells: E. coli BL21(DE3), pET-28b(+) plasmid
T1 sequence (P9WKK7 1-428): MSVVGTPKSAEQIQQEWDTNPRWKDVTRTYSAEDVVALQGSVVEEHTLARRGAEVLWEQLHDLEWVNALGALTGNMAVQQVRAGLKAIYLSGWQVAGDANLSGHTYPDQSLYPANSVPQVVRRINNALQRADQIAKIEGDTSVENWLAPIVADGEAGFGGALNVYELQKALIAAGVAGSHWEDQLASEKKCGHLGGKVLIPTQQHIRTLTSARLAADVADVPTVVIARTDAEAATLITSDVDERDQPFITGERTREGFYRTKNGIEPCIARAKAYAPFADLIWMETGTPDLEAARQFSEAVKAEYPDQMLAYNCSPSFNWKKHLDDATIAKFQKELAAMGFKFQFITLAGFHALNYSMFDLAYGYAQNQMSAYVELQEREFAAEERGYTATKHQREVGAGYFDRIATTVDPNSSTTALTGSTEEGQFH

Mtb. Praha 1 = experiment: microbe, parasite or virus in culture; assay type: cell-based; conditions: Mycobacterium tuberculosis, read-out: MIC Mtb. Praha 1
Mtb. 234/2005 = experiment: microbe, parasite or virus in culture; assay type: cell-based; conditions: Mycobacterium tuberculosis, read-out: MIC Mtb. 234/2005
[6] = 336 h, 14 d, read-out: MIC Mtb. 331/88
[7] = 504 h, 21 d, read-out: MIC Mtb. 331/88

| Compound | MIC (Mtb. 7357/1988; 336 h) [µM] | MIC (Mtb. 7357/1988; 504 h) [µM] | MIC [1, 6] [µM] | MIC [1, 7] [µM] | MIC ([2]; 168 h, 7 d) [µM] | MIC ([2]; 336 h, 14 d) [µM] | MIC ([2]; 504 h, 21 d) [µM] | MIC ([3]; 235/80, 168 h, 7 d) [µM] | MIC ([3]; 235/80, 336 h, 14 d) [µM] | MIC ([3]; 235/80, 504 h, 21 d) [µM] | MIC (Mtb. Praha 131 (XDR-TB); 336 h) [µM] | MIC (Mtb. Praha 131 (XDR-TB); 504 h) [µM] | MIC ([4]; 330/88, 336 h, 14 d) [µM] | MIC ([4]; 330/88, 504 h, 21 d) [µM] | MIC (Mtb. 53/2009; 336 h) [µM] | MIC (Mtb. 53/2009; 504 h) [µM] | MIC (Mtb. 9449/2006; 336 h) [µM] | MIC (Mtb. 9449/2006; 504 h) [µM] | inhibition at 10 µM [5] [%] | MIC (Mtb. Praha 1; 336 h) [µM] | also measured |
| --- | --- | --- | --- | --- | --- | --- | --- | --- | --- | --- | --- | --- | --- | --- | --- | --- | --- | --- | --- | --- | --- |
| O=C(Oc1ccc(Cl)cc1C(=O)Nc1cccc(Cl)c1)c1ccc(C(F)(F)F)cc1 [1a] | 4 (≈ 1.82 µg/mL) | 4 (≈ 1.82 µg/mL) | 2 (≈ 0.908 µg/mL) | 4 (≈ 1.82 µg/mL) | 2 (≈ 0.908 µg/mL) | 8 (≈ 3.63 µg/mL) | 8 (≈ 3.63 µg/mL) | 0.5 (≈ 0.227 µg/mL) | 2 (≈ 0.908 µg/mL) | 4 (≈ 1.82 µg/mL) | 4 (≈ 1.82 µg/mL) | 4 (≈ 1.82 µg/mL) | 8 (≈ 3.63 µg/mL) | 16 (≈ 7.27 µg/mL) | 4 (≈ 1.82 µg/mL) | 4 (≈ 1.82 µg/mL) | 4 (≈ 1.82 µg/mL) | 4 (≈ 1.82 µg/mL) | 18 ± 1.9 | 4 (≈ 1.82 µg/mL) | MIC (Mtb. Praha 1; 504 h): 4 µM (≈ 1.82 µg/mL); MIC (Mtb. 234/2005; 336 h): 4 µM (≈ 1.82 µg/mL); MIC (Mtb. 234/2005; 504 h): 4 µM (≈ 1.82 µg/mL) |
| O=C(Oc1ccc(Cl)cc1C(=O)Nc1ccc(Cl)cc1)c1ccc(C(F)(F)F)cc1 [1c] | 2 (≈ 0.908 µg/mL) | 2 (≈ 0.908 µg/mL) | 2 (≈ 0.908 µg/mL) | 2 (≈ 0.908 µg/mL) | 1 (≈ 0.454 µg/mL) | 4 (≈ 1.82 µg/mL) | 4 (≈ 1.82 µg/mL) | 1 (≈ 0.454 µg/mL) | 2 (≈ 0.908 µg/mL) | 2 (≈ 0.908 µg/mL) | 2 (≈ 0.908 µg/mL) | 2 (≈ 0.908 µg/mL) | 4 (≈ 1.82 µg/mL) | 8 (≈ 3.63 µg/mL) | 4 (≈ 1.82 µg/mL) | 4 (≈ 1.82 µg/mL) | 2 (≈ 0.908 µg/mL) | 2 (≈ 0.908 µg/mL) | 12 ± 2.7 | 2 (≈ 0.908 µg/mL) | MIC (Mtb. Praha 1; 504 h): 2 µM (≈ 0.908 µg/mL); MIC (Mtb. 234/2005; 336 h): 4 µM (≈ 1.82 µg/mL); MIC (Mtb. 234/2005; 504 h): 4 µM (≈ 1.82 µg/mL) |
| O=C(Oc1cc(Cl)ccc1C(=O)Nc1ccc(Cl)cc1)c1ccc(C(F)(F)F)cc1 [1d] | 4 (≈ 1.82 µg/mL) | 4 (≈ 1.82 µg/mL) | 4 (≈ 1.82 µg/mL) | 4 (≈ 1.82 µg/mL) | 1 (≈ 0.454 µg/mL) | 4 (≈ 1.82 µg/mL) | 4 (≈ 1.82 µg/mL) | 1 (≈ 0.454 µg/mL) | 4 (≈ 1.82 µg/mL) | 4 (≈ 1.82 µg/mL) | 2 (≈ 0.908 µg/mL) | 4 (≈ 1.82 µg/mL) | 4 (≈ 1.82 µg/mL) | 8 (≈ 3.63 µg/mL) | 4 (≈ 1.82 µg/mL) | 4 (≈ 1.82 µg/mL) | 4 (≈ 1.82 µg/mL) | 4 (≈ 1.82 µg/mL) | 12 ± 2.3 | 2 (≈ 0.908 µg/mL) | MIC (Mtb. Praha 1; 504 h): 4 µM (≈ 1.82 µg/mL); MIC (Mtb. 234/2005; 336 h): 4 µM (≈ 1.82 µg/mL); MIC (Mtb. 234/2005; 504 h): 4 µM (≈ 1.82 µg/mL) |
| O=C(Oc1cc(Cl)ccc1C(=O)Nc1cccc(F)c1)c1ccc(C(F)(F)F)cc1 [1l] | – | – | 4 (≈ 1.75 µg/mL) | 4 (≈ 1.75 µg/mL) | 8 (≈ 3.5 µg/mL) | 8 (≈ 3.5 µg/mL) | 16 (≈ 7 µg/mL) | 4 (≈ 1.75 µg/mL) | 8 (≈ 3.5 µg/mL) | 8 (≈ 3.5 µg/mL) | – | – | 8 (≈ 3.5 µg/mL) | 16 (≈ 7 µg/mL) | – | – | – | – | ≥ 20 | – | – |
| O=C(Oc1cc(Cl)ccc1C(=O)Nc1ccc(F)cc1)c1ccc(C(F)(F)F)cc1 [1n] | – | – | 4 (≈ 1.75 µg/mL) | 8 (≈ 3.5 µg/mL) | 4 (≈ 1.75 µg/mL) | 8 (≈ 3.5 µg/mL) | 8 (≈ 3.5 µg/mL) | 2 (≈ 0.876 µg/mL) | 8 (≈ 3.5 µg/mL) | 8 (≈ 3.5 µg/mL) | – | – | 4 (≈ 1.75 µg/mL) | 4 (≈ 1.75 µg/mL) | – | – | – | – | 17 ± 1.3 | – | – |
| O=C(Oc1ccc(Cl)cc1C(=O)Nc1cccc(C(F)(F)F)c1)c1ccc(C(F)(F)F)cc1 [1q] | – | – | 2 (≈ 0.976 µg/mL) | 2 (≈ 0.976 µg/mL) | 1 (≈ 0.488 µg/mL) | 4 (≈ 1.95 µg/mL) | 8 (≈ 3.9 µg/mL) | 2 (≈ 0.976 µg/mL) | 4 (≈ 1.95 µg/mL) | 8 (≈ 3.9 µg/mL) | – | – | 4 (≈ 1.95 µg/mL) | 16 (≈ 7.8 µg/mL) | – | – | – | – | 19 ± 0.5 | – | – |
| O=C(O)CC[N+](=O)[O-] [3-NP, 3-nitropropionic acid, reference compound] | – | – | – | – | – | – | – | – | – | – | – | – | – | – | – | – | – | – | 25 ± 4.1 | – | – |
| NNC(=O)c1ccncc1 [INH, isoniazid, reference compound] | – | – | 0.5 to 1 (≈ 0.0686 to 0.137 µg/mL) | 0.5 to 1 (≈ 0.0686 to 0.137 µg/mL) | – | – | – | – | – | – | – | – | ≥ 250 | ≥ 250 | – | – | – | – | 0 | – | MIC ([1]; time not stated, read-out: MIC against M. tuberculosis): 1 µM (≈ 0.137 µg/mL); MIC ([2]; 168 h): 2 to 4 µM (≈ 0.274 to 0.549 µg/mL); MIC ([2]; 336 h): 4 to 8 µM (≈ 0.549 to 1.1 µg/mL); MIC ([2]; 504 h): 8 to 16 µM (≈ 1.1 to 2.19 µg/mL); MIC ([3]; 235/80, 168 h): > 250 µM; MIC ([3]; 235/80, 336 h): > 250 µM; MIC ([3]; 235/80, 504 h): > 250 µM |
| Nc1ccc(C(=O)O)c(O)c1 [PAS, p-aminosalicylic acid, reference compound] | – | – | 62.5 (≈ 9.57 µg/mL) | 62.5 (≈ 9.57 µg/mL) | – | – | – | – | – | – | – | – | 32 (≈ 4.9 µg/mL) | 125 (≈ 19.1 µg/mL) | – | – | – | – | – | – | MIC ([2]; 168 h): 32 µM (≈ 4.9 µg/mL); MIC ([2]; 336 h): 125 µM (≈ 19.1 µg/mL); MIC ([2]; 504 h): 500 µM (≈ 76.6 µg/mL); MIC ([3]; 235/80, 168 h): 125 µM (≈ 19.1 µg/mL); MIC ([3]; 235/80, 336 h): 1000 µM (≈ 153 µg/mL); MIC ([3]; 235/80, 504 h): > 1000 µM |
